A short description of this assay: Inhibitory activity against IMP-1 metallo-beta-lactamase (MBL).

In the case of `O=C(O)[C@H](S)Cc1ccc(-c2ccccc2)cc1`, 0.057 µM corresponded to half-maximal inhibition (IC50).

`CC(C)CC(=O)N[C@H](C)C(=O)S[C@H](Cc1ccc(-c2ccccc2)cc1)C(=O)O`: the IC50 was determined as 5.3 µM.

`C[C@@H](NC(=O)c1ccccc1)C(=O)S[C@@H](Cc1ccc2oc3ccccc3c2c1)C(=O)O` registered an IC50 of 430 µM.

For `C=CCOC(=O)N[C@H](C)C(=O)S[C@H](Cc1ccc2oc3ccccc3c2c1)C(=O)O`, the IC50 was found to be 2.9 µM.

In turn, `CC(=O)S[C@@H](Cc1ccccc1)C(=O)O` had an IC50 of 740 µM.

Consider `COc1ccc(CC(=O)N[C@H](C)C(=O)S[C@H](Cc2ccc(-c3ccccc3)cc2)C(=O)O)cc1`, for which it took 12 µM to reach half-maximal inhibition (IC50).

Turning to `C[C@@H](NC(=O)c1ccccc1)C(=O)S[C@H](Cc1ccccc1)C(=O)O`, the 50% inhibitory concentration (IC50) worked out at 20 µM.

`C[C@@H](NC(=O)CCCC(=O)O)C(=O)S[C@H](Cc1ccc(-c2ccccc2)cc1)C(=O)O` showed an IC50 of 91 µM.

Regarding `CCCCCC(=O)N[C@H](C)C(=O)S[C@H](Cc1ccc(-c2ccccc2)cc1)C(=O)O`, the IC50 was 13 µM.

On to `O=C(S[C@H](Cc1ccccc1)C(=O)O)c1ccccc1`, for which the IC50 amounted to 0.064 µM.

`CCCC(=O)N[C@H](C)C(=O)S[C@H](Cc1ccc(-c2ccccc2)cc1)C(=O)O` had an IC50 of 9.3 µM.

`C[C@@H](NC(=O)Cc1ccc(O)cc1)C(=O)S[C@H](Cc1ccc(-c2ccccc2)cc1)C(=O)O`: the IC50 was found to be 3.1 µM.

`C[C@@H](NC(=O)Cc1ccc(N(C)C)cc1)C(=O)S[C@H](Cc1ccc(-c2ccccc2)cc1)C(=O)O` showed an IC50 of 55 µM.

`COc1cc(OC)c(C(=O)N[C@H](C)C(=O)S[C@H](Cc2ccc(-c3ccccc3)cc2)C(=O)O)c(OC)c1` yielded an IC50 of 46 µM.

Turning to `COc1ccc(C(=O)N[C@H](C)C(=O)S[C@H](Cc2ccc(-c3ccccc3)cc2)C(=O)O)cc1`, the IC50 turned out to be 29 µM.

For `CCCCC(=O)N[C@H](C)C(=O)S[C@H](Cc1ccc(-c2ccccc2)cc1)C(=O)O`, the IC50 was 4.8 µM.

For `CC(=O)N[C@H](C)C(=O)S[C@H](Cc1ccccc1)C(=O)O`, half-maximal inhibition (IC50) was put at 63 µM.

`CCC(=O)N[C@H](C)C(=O)S[C@H](Cc1ccc(-c2ccccc2)cc1)C(=O)O` had an IC50 of 9.5 µM.

On to `O=C(O)[C@@H](S)Cc1ccc2oc3ccccc3c2c1`, for which it took 0.25 µM to reach half-maximal inhibition (IC50).

`O=C(O)[C@H](S)Cc1ccc2oc3ccccc3c2c1` returned an IC50 of 0.023 µM.

`C[C@@H](NC(=O)CSCC(=O)O)C(=O)S[C@H](Cc1ccc(-c2ccccc2)cc1)C(=O)O` came in with an IC50 of 13 µM.

Regarding `O=C(S[C@@H](Cc1ccc(-c2ccccc2)cc1)C(=O)O)c1ccccc1`, the IC50 stood at 120 µM.

`CC(=O)S[C@H](Cc1ccc(-c2ccccc2)cc1)C(=O)O` displayed an IC50 of 0.084 µM.

In turn, `C[C@@H](NC(=O)c1ccccc1)C(=O)SCC(=O)O` returned a half-maximal inhibitory concentration (IC50) of 240 µM.

`CC(=O)N[C@H](C)C(=O)S[C@H](Cc1ccc2oc3ccccc3c2c1)C(=O)O`: the IC50 turned out to be 2 µM.

`C[C@@H](NC(=O)Cc1ccccc1)C(=O)S[C@H](Cc1ccc(-c2ccccc2)cc1)C(=O)O` had an IC50 of 5.8 µM.

With `COc1cccc(C(=O)N[C@H](C)C(=O)S[C@H](Cc2ccc(-c3ccccc3)cc2)C(=O)O)c1`, 38 µM corresponded to half-maximal inhibition (IC50).

As for `C[C@@H](NC(=O)Cc1ccccc1OCc1ccccc1)C(=O)S[C@H](Cc1ccc(-c2ccccc2)cc1)C(=O)O`, half-maximal inhibition (IC50) required 24 µM.

Turning to `CC(C)C(=O)N[C@H](C)C(=O)S[C@H](Cc1ccc(-c2ccccc2)cc1)C(=O)O`, the IC50 worked out at 9.7 µM.

In turn, `C[C@@H](NC(=O)CNC(=O)c1ccccc1)C(=O)S[C@H](Cc1ccc(-c2ccccc2)cc1)C(=O)O` yielded an IC50 of 50 µM.

In turn, `C[C@@H](NC(=O)c1ccc2ccccc2c1)C(=O)S[C@H](Cc1ccc(-c2ccccc2)cc1)C(=O)O` came in with an IC50 of 18 µM.

Molecule `C[C@@H](NC(=O)c1cccc(N(C)C)c1)C(=O)S[C@H](Cc1ccc(-c2ccccc2)cc1)C(=O)O` gave an IC50 of 15 µM.

Regarding `CC(=O)N[C@H](C)C(=O)S[C@H](Cc1ccc(-c2ccccc2)cc1)C(=O)O`, half-maximal inhibition (IC50) required 18 µM.

In turn, `C=CCOC(=O)N[C@H](C)C(=O)S[C@H](Cc1ccccc1)C(=O)O` displayed an IC50 of 64 µM.

The molecule `C[C@@H](NC(=O)CCC(=O)O)C(=O)S[C@H](Cc1ccc(-c2ccccc2)cc1)C(=O)O` had an IC50 of 4.7 µM.

Turning to `C[C@@H](NC(=O)c1ccccc1)C(=O)S[C@H](Cc1ccc2oc3ccccc3c2c1)C(=O)O`, it took 1.5 µM to reach half-maximal inhibition (IC50).

Molecule `CC(=O)S[C@H](Cc1ccc2oc3ccccc3c2c1)C(=O)O` registered an IC50 of 0.045 µM.

`CC(=O)S[C@@H](Cc1ccc(-c2ccccc2)cc1)C(=O)O` had an IC50 of 74 µM.

The molecule `C[C@@H](NC(=O)/C=C/c1ccccc1)C(=O)S[C@H](Cc1ccc(-c2ccccc2)cc1)C(=O)O` returned an IC50 of 11 µM.

As to `C[C@@H](NC(=O)CCc1ccccc1)C(=O)S[C@H](Cc1ccc(-c2ccccc2)cc1)C(=O)O`, the IC50 came out at 15 µM.

For the molecule `O=C(O)[C@H](S)Cc1ccccc1`, the IC50 worked out at 0.086 µM.

Take `O=C(S[C@H](Cc1ccc(-c2ccccc2)cc1)C(=O)O)c1ccccc1`: half-maximal inhibition (IC50) required 0.00041 µM.

With `C=CCOC(=O)N[C@H](C)C(=O)S[C@H](Cc1ccc(-c2ccccc2)cc1)C(=O)O`, the IC50 came out at 4.4 µM.

`C[C@@H](NC(=O)COc1ccccc1)C(=O)S[C@H](Cc1ccc(-c2ccccc2)cc1)C(=O)O` displayed an IC50 of 1 µM.

For `CC(=O)S[C@@H](Cc1ccc2oc3ccccc3c2c1)C(=O)O`, the IC50 stood at 160 µM.

The molecule `O=C(S[C@H](Cc1ccc2oc3ccccc3c2c1)C(=O)O)c1ccccc1` came in with a concentration for half-maximal inhibition (IC50) of 0.0013 µM.

Molecule `C/C=C/C(=O)N[C@H](C)C(=O)S[C@H](Cc1ccc(-c2ccccc2)cc1)C(=O)O` gave an IC50 of 33 µM.

In the case of `C[C@@H](NC(=O)Cc1cccnc1)C(=O)S[C@H](Cc1ccc(-c2ccccc2)cc1)C(=O)O`, the IC50 came out at 32 µM.

`O=C(S[C@@H](Cc1ccc2oc3ccccc3c2c1)C(=O)O)c1ccccc1` had an IC50 of 49 µM.

In the case of `O=C(O)[C@@H](S)Cc1ccccc1`, the IC50 came to 3.7 µM.

The molecule `CC(=O)S[C@H](Cc1ccccc1)C(=O)O` showed an IC50 of 12 µM.

Regarding `C[C@@H](NC(=O)Cc1cccc2ccccc12)C(=O)S[C@H](Cc1ccc(-c2ccccc2)cc1)C(=O)O`, the IC50 is 12 µM.

`C[C@@H](NC(=O)c1ccccc1)C(=O)S[C@H](Cc1ccc(-c2ccccc2)cc1)C(=O)O`: the IC50 is 3.6 µM.

Consider `O=C(O)[C@@H](S)Cc1ccc(-c2ccccc2)cc1`, for which inhibition was half-maximal at 1.2 µM (IC50).

With `O=C(S[C@@H](Cc1ccccc1)C(=O)O)c1ccccc1`, the midpoint of inhibition, the IC50, lay at 2.5 µM.

`C[C@@H](NC(=O)CCC(=O)c1ccccc1)C(=O)S[C@H](Cc1ccc(-c2ccccc2)cc1)C(=O)O` gave an IC50 of 0.25 µM.

By IC50 is commonly meant the concentration that inhibits the measured activity by half. Lower therefore signals greater potency in that assay.

For the origin of these results see ChEMBL document CHEMBL1132104, “Synthesis and SAR of thioester and thiol inhibitors of IMP-1 metallo-beta-lactamase” (Bioorg Med Chem Lett, 1999).
